Laboratory results: ChEMBL document CHEMBL4732160, “Design and synthesis of 7-O-1,2,3-triazole hesperetin derivatives to relieve inflammation of acute liver injury in mice” (Eur J Med Chem, 2021)
Calls of active or inactive are those of the source. The rule behind the calls is not given here.

Legend:
RAW264.7 [1] = assay: Antiinflammatory activity in mouse RAW264.7 cells assessed as inhibition of LPS-induced NO production at 10 uM preincubated for 2 hrs followed by LPS stimulation and measured after 24 hrs by Griess method relative to control; format: functional; conditions: time 26 hrs
RAW264.7 [2] = assay: Antiinflammatory activity in mouse RAW264.7 cells assessed as inhibition of LPS-induced NO production preincubated for 2 hrs followed by LPS stimulation and measured after 24 hrs by Griess method; format: functional, cell-based
[3] = Cytotoxicity against mouse RAW264.7 cells assessed as cell viability at 40 uM measured after 24 hrs by MTT assay relative to control; format: cell-based
RAW264.7 [4] = assay: Antiinflammatory activity in mouse RAW264.7 cells assessed as inhibition of LPS-induced TNFalpha production at 10 uM preincubated for 1 hr followed by LPS stimulation and measured after 22 hrs by ELISA; format: functional, cell-based; conditions: time 23.0 hrs
RAW264.7 [5] = assay: Antiinflammatory activity in mouse RAW264.7 cells assessed as inhibition of LPS-induced IL1beta production at 10 uM preincubated for 1 hr followed by LPS stimulation and measured after 22 hrs by ELISA; format: functional, cell-based; conditions: time 23.0 hrs
RAW264.7 [6] = assay: Antiinflammatory activity in mouse RAW264.7 cells assessed as inhibition of LPS-induced IL6 production at 10 uM preincubated for 1 hr followed by LPS stimulation and measured after 22 hrs by ELISA; format: functional, cell-based; conditions: time 23.0 hrs

Row | IC50 (RAW264.7 [2]) | SMILES | inhibition at 10 µM (RAW264.7 [1]) | viability at 24 h, 40 µM [3] | inhibition (RAW264.7 [4]) | inhibition (RAW264.7 [5]) | inhibition (RAW264.7 [6])
1 | 6.88 µM | COc1ccc([C@@H]2C/C(=N\O)c3c(O)cc(OCc4cn(C5CCCC5)nn4)cc3O2)cc1O | 63.7% | 112% | Active | Active | Active
2 | 18.2 µM | COc1ccc([C@@H]2CC(=O)c3c(O)cc(OCc4cn(Cc5cccc(Cl)c5)nn4)cc3O2)cc1O | 28% | 120% | Active | Active | Active
3 | 5.71 µM | COc1ccc([C@@H]2C/C(=N\O)c3c(O)cc(OCc4cn(Cc5ccccc5F)nn4)cc3O2)cc1O | 65.4% | 82% | Active | Active | Active
4 | 15.4 µM | COc1ccc([C@@H]2CC(=O)c3c(O)cc(OCc4cn(CC(=O)c5ccc(F)cc5)nn4)cc3O2)cc1O | 38.5% | 64% | Active | Active | Active
5 | 20.9 µM | C#CCOc1cc(O)c2c(c1)O[C@H](c1ccc(OC)c(O)c1)CC2=O | 35.2% |  |  |  | 
6 | 18.9 µM | COc1ccc([C@@H]2CC(=O)c3c(O)cc(OCc4cn(CC(=O)c5ccccc5OC)nn4)cc3O2)cc1O | 22.8% | 132% | Active | Active | Active
7 | 19.1 µM | C#CCOc1cc(O)c2c(c1)O[C@H](c1ccc(OC)c(O)c1)C/C2=N\O | 38.7% |  |  |  | 
8 | 13.2 µM | COc1ccc([C@@H]2CC(=O)c3c(O)cc(OCc4cn(CC(=O)c5ccccc5Cl)nn4)cc3O2)cc1O | 34.1% | 99% | Active | Active | Active
9 | 3.14 µM | CCn1cc(COc2cc(O)c3c(c2)O[C@H](c2ccc(OC)c(O)c2)C/C3=N\O)nn1 | 65.1% | 101% | Active | Active | Active
10 | 15.1 µM | COc1ccc([C@@H]2CC(=O)c3c(O)cc(OCc4cn(Cc5ccc(F)cc5)nn4)cc3O2)cc1O | 41.4% | 101% | Active | Active | Active
11 | 13.9 µM | CCCCn1cc(COc2cc(O)c3c(c2)O[C@H](c2ccc(OC)c(O)c2)CC3=O)nn1 | 49.9% | 118% | Active | Active | Active
12 | 6.32 µM | COc1ccc([C@@H]2C/C(=N\O)c3c(O)cc(OCc4cn(CC5CC5)nn4)cc3O2)cc1O | 67% | 86% | Active | Active | Active
13 | 15 µM | CCn1cc(COc2cc(O)c3c(c2)O[C@H](c2ccc(OC)c(O)c2)CC3=O)nn1 | 41.4% | 106% | Active | Active | Active
14 | 13.1 µM | COc1ccc([C@@H]2CC(=O)c3c(O)cc(OCc4cn(Cc5ccccc5C)nn4)cc3O2)cc1O | 45.7% | 100% | Active | Active | Active
15 | 6.13 µM | COc1ccc([C@@H]2C/C(=N\O)c3c(O)cc(OCc4cn(Cc5ccccc5)nn4)cc3O2)cc1O | 63.6% | 93% | Active | Active | Active

Second part, the compound before the results:

Row | SMILES | IC50 (RAW264.7 [2]) | inhibition at 10 µM (RAW264.7 [1]) | viability at 24 h, 40 µM [3] | inhibition (RAW264.7 [4]) | inhibition (RAW264.7 [5]) | inhibition (RAW264.7 [6])
16 | COc1ccc([C@@H]2CC(=O)c3c(O)cc(OCc4cn(Cc5ccccc5Cl)nn4)cc3O2)cc1O | 6.14 µM | 63.1% | 83% | Active | Active | Active
17 | COc1ccc([C@@H]2CC(=O)c3c(O)cc(OCc4cn(CC5CC5)nn4)cc3O2)cc1O | 11.9 µM | 48.8% | 87% | Active | Active | Active
18 | COc1ccc2c(c1)c(CC(=O)O)c(C)n2C(=O)c1ccc(Cl)cc1 [INDOMETHACIN] |  |  | 87% | Active | Active | Active
19 | COc1ccc([C@@H]2CC(=O)c3c(O)cc(OCc4cn(Cc5ccc(C)cc5)nn4)cc3O2)cc1O | 16.8 µM | 29.4% | 110% | Active | Active | Active
20 | COc1ccc([C@@H]2CC(=O)c3c(O)cc(OCc4cn(Cc5ccccc5C#N)nn4)cc3O2)cc1O | 14.6 µM | 43.6% | 114% | Active | Active | Active
21 | COc1ccc([C@@H]2CC(=O)c3c(O)cc(OCc4cn(C5CCCCC5)nn4)cc3O2)cc1O | 15.6 µM | 42.4% | 124% | Active | Active | Active
22 | COc1ccc([C@@H]2CC(=O)c3c(O)cc(OCc4cn(Cc5cccc(C)c5)nn4)cc3O2)cc1O | 17.4 µM | 31% | 113% | Active | Active | Active
23 | COc1ccc([C@@H]2CC(=O)c3c(O)cc(OCc4cn(Cc5ccc(C(F)(F)F)cc5)nn4)cc3O2)cc1O | 17.7 µM | 36.4% | 66% | Active | Active | Active
24 | CCCn1cc(COc2cc(O)c3c(c2)O[C@H](c2ccc(OC)c(O)c2)CC3=O)nn1 | 9.67 µM | 56.4% | 114% | Active | Active | Active
25 | Cc1ccc(-c2cc(C(F)(F)F)nn2-c2ccc(S(N)(=O)=O)cc2)cc1 [CELECOXIB] |  |  | 83% | Active | Active | Active
26 | COc1ccc([C@@H]2CC(=O)c3c(O)cc(OCc4cn(C5CCC5)nn4)cc3O2)cc1O | 15.3 µM | 44.2% | 111% | Active | Active | Active
27 | COc1ccc([C@@H]2CC(=O)c3c(O)cc(OCc4cn(CCCO)nn4)cc3O2)cc1O | 16.7 µM | 32.8% | 121% | Active | Active | Active
28 | CCCCn1cc(COc2cc(O)c3c(c2)O[C@H](c2ccc(OC)c(O)c2)C/C3=N\O)nn1 | 8.9 µM | 56.9% | 62% | Active | Active | Active
